The source of these data is publication PMC4121658 (Anesthesiology, 2014).

The nature of data set [1]: Lethality after intravenous bolus injection. The data set is classed as in vivo, Sprague-Dawley rats. The settings on record: Sprague-Dawley, rat, in vivo, iv.
Data set [2] deals with rats. Briefly: Lethality after intravenous bolus injection. It is filed as in vivo, Sprague-Dawley rats. The settings on record: for rats died: intravenous bolus; for Therapeutic Index: LD50/Hypnotic ED50, rats.
Data set [3] deals with rats. The settings on record: larger number of Sprague Dawley rats; cited from earlier work.
The target of data set [4] is α1(L264T)β3γ2L GABAA receptors (Homo sapiens, UniProt P14867+P28472, L291T). As to the kind of experiment: cell-based. The data set is classed as cell-based. The settings on record: for Surge current amplitude, of the directly activated peak current: 1000 μM drug, upon washout, α1(L264T)β3γ2L; for Subunit Selectivity Ratio: EC50 β1 subunit/EC50 β3 subunit, ± SD by error propagation.
Sequence of α1(L264T)β3γ2L GABAA receptors (P14867 28-456 L291T): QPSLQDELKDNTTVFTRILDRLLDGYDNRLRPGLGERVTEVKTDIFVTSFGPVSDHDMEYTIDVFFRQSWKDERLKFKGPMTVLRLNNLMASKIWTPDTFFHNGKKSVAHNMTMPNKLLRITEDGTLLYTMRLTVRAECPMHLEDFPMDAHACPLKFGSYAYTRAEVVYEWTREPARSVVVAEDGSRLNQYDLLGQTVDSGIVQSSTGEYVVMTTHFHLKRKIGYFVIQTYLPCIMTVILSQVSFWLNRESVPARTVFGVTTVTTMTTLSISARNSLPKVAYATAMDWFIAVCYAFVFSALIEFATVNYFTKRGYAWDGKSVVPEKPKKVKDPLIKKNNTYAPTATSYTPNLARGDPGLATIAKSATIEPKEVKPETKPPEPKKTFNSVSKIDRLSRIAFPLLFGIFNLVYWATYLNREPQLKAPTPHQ
Sequence of α1(L264T)β3γ2L GABAA receptors (P28472 26-473): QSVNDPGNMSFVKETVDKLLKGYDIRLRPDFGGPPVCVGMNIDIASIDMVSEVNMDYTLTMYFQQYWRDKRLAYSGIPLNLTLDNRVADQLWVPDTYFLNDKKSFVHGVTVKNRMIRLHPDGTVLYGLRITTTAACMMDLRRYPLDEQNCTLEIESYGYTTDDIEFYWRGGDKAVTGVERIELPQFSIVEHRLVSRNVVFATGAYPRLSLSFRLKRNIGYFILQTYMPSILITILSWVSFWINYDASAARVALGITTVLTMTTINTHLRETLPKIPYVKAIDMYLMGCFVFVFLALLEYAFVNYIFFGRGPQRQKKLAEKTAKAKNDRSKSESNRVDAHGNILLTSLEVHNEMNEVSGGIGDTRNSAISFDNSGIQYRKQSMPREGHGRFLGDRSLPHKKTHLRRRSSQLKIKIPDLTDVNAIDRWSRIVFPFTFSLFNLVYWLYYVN
Sequence of α1(L264T)β3γ2L GABAA receptors (P18507 40-475 partner): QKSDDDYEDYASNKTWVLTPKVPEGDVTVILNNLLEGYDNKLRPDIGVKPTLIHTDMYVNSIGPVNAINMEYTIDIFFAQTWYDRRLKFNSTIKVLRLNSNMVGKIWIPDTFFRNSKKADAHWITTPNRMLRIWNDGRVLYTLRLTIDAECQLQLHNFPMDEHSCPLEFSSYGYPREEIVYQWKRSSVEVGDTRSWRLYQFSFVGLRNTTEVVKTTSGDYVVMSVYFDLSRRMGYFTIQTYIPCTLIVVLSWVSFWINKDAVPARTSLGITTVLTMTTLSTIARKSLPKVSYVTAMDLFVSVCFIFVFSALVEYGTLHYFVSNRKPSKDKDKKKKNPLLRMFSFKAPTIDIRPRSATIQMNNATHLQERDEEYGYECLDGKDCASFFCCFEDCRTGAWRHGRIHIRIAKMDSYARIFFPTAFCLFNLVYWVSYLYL

Data set [5] addresses α1(L264T)β1γ2L GABAA receptors (Homo sapiens, UniProt P14867+P18505, L291T). It is filed as cell-based. The conditions noted are these: for Surge current amplitude, of the directly activated peak current: 1000 μM drug, upon washout, α1(L264T)β1γ2L.
The test system of a further data set is adrenocortical function. Briefly: ACTH1–24 stimulation test, in vivo adrenocortical inhibitory potency. The conditions noted are these: Adrenocortical ID50/Hypnotic ED50, rats. Further details: species or system Sprague-Dawley rats.

Molecules are shown by their SMILES.

Sequence of α1(L264T)β1γ2L GABAA receptors (P14867 28-456 L291T): as the sequence (P14867 28-456 L291T) above
Sequence of α1(L264T)β1γ2L GABAA receptors (P18505 26-474): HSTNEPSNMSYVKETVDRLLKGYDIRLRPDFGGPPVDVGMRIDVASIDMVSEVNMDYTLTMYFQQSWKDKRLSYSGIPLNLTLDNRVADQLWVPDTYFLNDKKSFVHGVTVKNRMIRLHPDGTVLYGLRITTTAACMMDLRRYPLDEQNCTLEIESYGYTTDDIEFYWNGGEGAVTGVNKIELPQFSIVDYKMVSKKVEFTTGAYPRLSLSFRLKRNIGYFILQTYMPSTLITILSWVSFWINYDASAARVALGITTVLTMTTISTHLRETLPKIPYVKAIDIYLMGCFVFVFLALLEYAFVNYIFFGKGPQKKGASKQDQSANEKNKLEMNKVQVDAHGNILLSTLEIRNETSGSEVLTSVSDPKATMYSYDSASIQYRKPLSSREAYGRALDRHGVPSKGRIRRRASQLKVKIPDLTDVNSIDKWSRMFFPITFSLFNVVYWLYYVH
Sequence of α1(L264T)β1γ2L GABAA receptors (P18507 40-475 partner): as the sequence (P18507 40-475 partner) above

In the case of `CCOC(=O)c1cncn1[C@H](C)c1ccccc1` [R-etomidate, R-ethyl 1-(1-phenylethyl)-1H-imidazole-5-carboxylate, reference compound], the median lethal dose (LD50) stood at 15 mg/kg in data set [1] and 20 mg/kg in data set [1] (20 mg/kg). Besides, the rats died with rats [2] (20 mg/kg dose) was 1/2. Moreover, the “LD50, previously reported value” in the data set with rats [3] is recorded as 20.4 mg/kg.
In data set [1], `CCOC(=O)c1cncn1[C@@H](C)c1ccccc1` [S-etomidate, S-ethyl 1-(1-phenylethyl)-1H-imidazole-5-carboxylate, reference compound] came in with an LD50 of 25 mg/kg. Also, in the data set on rats [2] (30 mg/kg dose), the rats died is listed as 3/3.
For the molecule `CCOC(=O)c1cncn1C1(c2ccccc2)CC1` [cyclopropyl etomidate, ethyl 1-(1-phenylcyclopropyl)-1H-imidazole-5-carboxylate], in data set [4], the 50% effective concentration (EC50) was 67.6 ± 8.1 µM; the “Surge current amplitude, of the directly activated peak current” value (“Surge current amplitude” for short) stood at 61.5 ± 6.9%; the “Subunit Selectivity Ratio” value is given as 23.5 ± 3.5. Moreover, in data set [5], the EC50 was 1590 ± 140 µM and the “Surge current amplitude” value turned out to be 73.0 ± 38.5%. This molecule also returned an LD50 in data set [1] of 50 mg/kg. Further, the rats died in the data set with rats [2] (50 mg/kg dose) was 2/4. In addition, the “Therapeutic Index” value in the data set on rats [2] is 10. Moreover, the “Adrenocortical Toxicity Index” value in the data set with adrenocortical function is 0.38 ± 0.08.
`CCOC(=O)c1cncn1Cc1ccccc1` [dihydrogen etomidate, ethyl 1-benzyl-1H-imidazole-5-carboxylate]: in data set [4], the 50% effective concentration (EC50) was determined as 161 ± 13 µM; the “Surge current amplitude” value worked out at 3 ± 2%; the “Subunit Selectivity Ratio” value turned out to be 2.48 ± 0.27. In data set [5], a half-maximal response (EC50) required 400 ± 28 µM and the “Surge current amplitude” value came out at 3 ± 2%. Also, the 50% lethal dose (LD50) in data set [1] worked out at 40 mg/kg. For the same molecule, the rats died in the data set with rats [2] (50 mg/kg dose) is recorded as 3/3. The “Therapeutic Index” value with rats [2] is 8. Also, the “Adrenocortical Toxicity Index” value with adrenocortical function is on record as 0.52 ± 0.12.
Take `CC(C)c1cccc(C(C)C)c1O` [propofol, reference compound]: in data set [4], the concentration giving a half-maximal response (EC50) was 7.58 ± 0.83 µM.
